Read-outs that look alike come from different tables or passages of the source.
Tests used:
[1] = reconstituted with 40 mL Sterile Water for Injection, cited from earlier work
[2] = physchem; conditions: 5 °C
Description: Samples were then refrigerated at 5° C. and inspected after 0, 3, 6 and 24 hours for particulates and/or precipitates.

[3] = HPLC stability of bendamustine in TBA 20% (v/v) with and without mannitol over 24 hours; assay type: physicochemical
Description: FIGS. 3 and 4 show the amount of degradation of bendamustine as measured by HP1 and dimer formation quantified by HPLC (as described herein). HP1 and dimer formation increased as the amount of alcohol concentration decreased regardless of the alcohol. This increase in impurities occurred with an anticipated time dependence (see Tables 3-9).

[4] = 10% (v/v) methanol in water with 25.5 mg/mL mannitol, aqueous with cosolvent or surfactant or cyclodextrin
[5] = alcohol/water solution with mannitol 25.5 mg/mL, aqueous with cosolvent or surfactant or cyclodextrin
[6] = alcohol/water solution with mannitol 25.5 mg/mL, aqueous with cosolvent or surfactant or cyclodextrin, thermodynamic from solid
[7] = alcohol/water solution with mannitol, aqueous with cosolvent or surfactant or cyclodextrin
[8] = alcohol/water solution with mannitol, aqueous with cosolvent or surfactant or cyclodextrin, thermodynamic from solid
[9] = alcohol/water solution with mannitol, water, thermodynamic from solid
[10] = water with mannitol 25.5 mg/mL, water, thermodynamic from solid

Cl.Cn1c(CCCC(=O)O)nc2cc(N(CCCl)CCCl)ccc21 [bendamustine, 4-{5-[Bis(2-chloroethyl)amino]-1-methyl-2-benzimidazolyl}butyric acid]
stable period after reconstitution ([1]; room temperature storage): 7 h
stable period after reconstitution ([1]; storage at 2-8° C.): 140 h
solubility at 0 h [2, 4]: > 15 mg/mL
solubility at 3 h [2, 4]: > 15 mg/mL
solubility at 6 h [2, 4]: > 15 mg/mL
solubility at 0 h [2, 5]: > 15 mg/mL
solubility at 3 h [2, 5]: > 15 mg/mL
solubility at 6 h [2, 5]: > 15 mg/mL
solubility at 24 h [2, 5]: > 15 mg/mL
solubility at 0 h [2, 6]: > 15 mg/mL
solubility at 3 h [2, 6]: > 15 mg/mL
solubility at 6 h [2, 6]: > 15 mg/mL
solubility at 24 h [2, 6]: > 15 mg/mL
solubility at 0 h [2, 7]: > 15 mg/mL
solubility at 3 h [2, 7]: > 15 mg/mL
solubility at 6 h [2, 7]: > 15 mg/mL
solubility at 24 h [2, 7]: > 15 mg/mL
solubility at 0 h [2, 8]: > 15 mg/mL
solubility at 3 h [2, 8]: > 15 mg/mL
solubility at 6 h [2, 8]: > 15 mg/mL
solubility at 24 h [2, 8]: > 15 mg/mL
solubility at 0 h [2, 9]: > 15 mg/mL
solubility at 3 h [2, 9]: > 15 mg/mL
solubility at 0 h [2, 10]: > 15 mg/mL
solubility at 3 h [2, 10]: > 15 mg/mL
Purity (% Area) ([3]; TBA 20% (v/v) with Mannitol, 0 hours, reverse phase HPLC): 99.59 % Area
Purity (% Area) ([3]; TBA 20% (v/v) with Mannitol, 24 hours @ 5° C., reverse phase HPLC): 99.35 % Area
Purity (% Area) ([3]; TBA 20% (v/v) without Mannitol, 0 hours, normal phase HPLC): 100.0 % Area
Purity (% Area) ([3]; TBA 20% (v/v) without Mannitol, 24 hours @ 5° C., normal phase HPLC): 98.80 % Area

Source: patent US8895756B2, “Bendamustine pharmaceutical compositions” (priority 2005, dated 2014)
